The record followed here is patent publication US20130090385A1, “NOVEL SPECIFIC CASPASE-10 INHIBITORS” (MERCK PATENT GESELLSCHAFT MIT BESCHRANKTER HAFTUNG, priority 2005, published 2013).

For test [1], the target named is T1, Recombinant human caspase-2 (Homo sapiens, UniProt P42575).
T1 sequence (P42575 1-452): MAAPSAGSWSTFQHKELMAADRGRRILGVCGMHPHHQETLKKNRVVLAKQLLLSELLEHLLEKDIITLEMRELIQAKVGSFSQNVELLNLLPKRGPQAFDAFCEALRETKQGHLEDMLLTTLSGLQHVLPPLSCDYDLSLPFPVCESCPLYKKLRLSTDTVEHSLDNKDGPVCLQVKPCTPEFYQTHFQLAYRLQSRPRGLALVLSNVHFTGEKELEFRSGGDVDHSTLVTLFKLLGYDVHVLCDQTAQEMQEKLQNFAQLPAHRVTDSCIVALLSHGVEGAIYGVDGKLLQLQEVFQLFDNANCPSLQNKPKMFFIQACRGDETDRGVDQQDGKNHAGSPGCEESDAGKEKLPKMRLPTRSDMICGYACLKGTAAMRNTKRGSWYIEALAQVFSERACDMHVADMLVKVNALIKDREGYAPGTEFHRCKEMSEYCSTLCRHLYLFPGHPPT
Put plainly: delayed-time fluorescence caspase inhibition test, caspase-2.
Method: (§1) The substrate used is a tetrapeptide specific to this caspase, having at one of its ends a fluorescent europium marker (W1284) and at the other end a europium chelate fluorescence quencher (QSy-7): Eu-W1284-CIETDK-QSy-7.
(§2) The caspase cleaves the substrate, releasing the quencher. Thus, by excitation at 340 nm, the signal emitted by the fluorescence of the europium is read by WALLAC Victor^2 reader at 615 nm.
(§3) They are ready for use or may be divided into aliquots and stored at −80° C.. […] 20 μl of this solution are distributed per well of the assay plate. […] The assay is performed with 1 U of enzyme per well, by distributing 20 μl of the diluted solution per well. • The standard inhibitors: The standard inhibitors are dissolved in DMSO to a concentration of 10 mM. They are tested at IC20 and at IC50 on the caspases they inhibit (see following table).
(§4) They are then distributed in the wells using this solution to reach the final concentration of IC20 or IC50, i.e. 3 μl in 33 μl of final reaction volume (dilution 1/11). Thus, the final concentration of DMSO in the well is 0.3% (v/v) final. […] An intermediate dilution (1/6.6) is prepared in DMSO by diluting 10 μl of the concentrated solution in 66 μl of DMSO (final volume). […] The inhibitors are then distributed in the wells to reach the final screening concentration (10 μM), i.e. 3 μl in 33 μl of final reaction volume (dilution 1/11) and a final concentration of DMSO of 0.3% (v/v) in the well. • Protocol:
(§5) The incubation takes place for 3 hours 30 minutes at room temperature before reading the fluorescence in delayed time on the WALLAC Victor^2 reader with the filters corresponding to the fluorescence of europium (excitation filter: 340 nm, emission filter: 615 nm).
(§6) The inhibitors are diluted using solutions with concentrations of less than 20 mM in DMSO, and then prediluted in the caspase buffer. […] The specificity factor for caspase-10 is calculated as the following ratio:

Test [2] addresses T2, Recombinant human caspase-3 (Homo sapiens, UniProt P42574).
T2 sequence (P42574 29-277): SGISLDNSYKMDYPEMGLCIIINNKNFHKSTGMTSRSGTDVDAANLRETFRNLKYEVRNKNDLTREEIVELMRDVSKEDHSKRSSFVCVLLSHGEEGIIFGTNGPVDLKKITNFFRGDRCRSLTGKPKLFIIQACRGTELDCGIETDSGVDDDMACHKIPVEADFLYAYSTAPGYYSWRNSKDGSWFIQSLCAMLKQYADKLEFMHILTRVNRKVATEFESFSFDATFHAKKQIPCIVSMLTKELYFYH
The test can be described thus: delayed-time fluorescence caspase inhibition test, caspase-3.
Method: as §1, §2
20 μl of this solution are distributed per well of the assay plate. […] The assay is performed with 1 U of enzyme per well, by distributing 20 μl of the diluted solution per well. • The standard inhibitors: The standard inhibitors are dissolved in DMSO to a concentration of 10 mM. They are tested at IC20 and at IC50 on the caspases they inhibit (see following table). The concentrations mentioned in the table are the final concentrations in the assay wells.
as §4
The volumes and the protocol were optimised for automated use.
as §5
The inhibitors are diluted using solutions with concentrations of less than 20 mM in DMSO, and then prediluted in the caspase buffer.

For test [3], the target named is T3, Recombinant human caspase-10 (Homo sapiens, UniProt Q92851).
T3 sequence (Q92851 220-521): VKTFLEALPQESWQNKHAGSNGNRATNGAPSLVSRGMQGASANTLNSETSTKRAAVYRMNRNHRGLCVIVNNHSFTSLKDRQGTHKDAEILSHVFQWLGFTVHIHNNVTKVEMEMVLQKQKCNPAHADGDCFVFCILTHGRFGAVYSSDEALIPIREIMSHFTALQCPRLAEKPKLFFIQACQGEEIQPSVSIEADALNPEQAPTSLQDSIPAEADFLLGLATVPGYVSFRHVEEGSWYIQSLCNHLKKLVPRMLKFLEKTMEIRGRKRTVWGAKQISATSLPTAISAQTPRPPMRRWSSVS
Put plainly: delayed-time fluorescence caspase inhibition test, caspase-10.
Method: as §1, §2, §3, §4, §5, §6

Test [4] has as its target T4, Recombinant human caspase-9 (Homo sapiens, UniProt P55211).
T4 sequence (P55211 1-416): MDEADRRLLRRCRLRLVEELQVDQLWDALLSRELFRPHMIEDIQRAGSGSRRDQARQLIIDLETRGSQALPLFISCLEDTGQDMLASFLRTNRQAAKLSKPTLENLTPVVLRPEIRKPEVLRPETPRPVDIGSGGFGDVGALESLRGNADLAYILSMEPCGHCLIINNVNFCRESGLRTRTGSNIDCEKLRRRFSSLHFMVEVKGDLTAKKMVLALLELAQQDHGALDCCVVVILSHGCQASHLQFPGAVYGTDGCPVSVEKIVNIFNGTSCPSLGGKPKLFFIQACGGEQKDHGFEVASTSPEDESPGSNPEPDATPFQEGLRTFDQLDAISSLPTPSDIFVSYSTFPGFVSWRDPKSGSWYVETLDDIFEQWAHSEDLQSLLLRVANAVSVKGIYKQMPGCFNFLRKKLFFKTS
Put plainly: delayed-time fluorescence caspase inhibition test, caspase-9.
Method: as §1, §2, §3, §4, §5, §6

Test [5] deals with Recombinant human caspase-8 (Homo sapiens, UniProt Q14790). The test can be described thus: delayed-time fluorescence caspase inhibition test, caspase-8.
Sequence of Recombinant human caspase-8 (Q14790 217-479): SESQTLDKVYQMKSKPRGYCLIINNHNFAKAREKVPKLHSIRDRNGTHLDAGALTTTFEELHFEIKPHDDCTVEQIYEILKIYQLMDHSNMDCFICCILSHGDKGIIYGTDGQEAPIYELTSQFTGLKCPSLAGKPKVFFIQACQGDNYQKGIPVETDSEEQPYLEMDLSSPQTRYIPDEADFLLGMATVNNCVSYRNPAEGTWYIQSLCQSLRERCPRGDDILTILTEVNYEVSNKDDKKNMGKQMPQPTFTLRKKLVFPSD
Method: as §1, §2, §3, §4, §5, §6
Test [6] has as its target T5, Recombinant human caspase-6 (Homo sapiens, UniProt P55212).
T5 sequence (P55212 24-293): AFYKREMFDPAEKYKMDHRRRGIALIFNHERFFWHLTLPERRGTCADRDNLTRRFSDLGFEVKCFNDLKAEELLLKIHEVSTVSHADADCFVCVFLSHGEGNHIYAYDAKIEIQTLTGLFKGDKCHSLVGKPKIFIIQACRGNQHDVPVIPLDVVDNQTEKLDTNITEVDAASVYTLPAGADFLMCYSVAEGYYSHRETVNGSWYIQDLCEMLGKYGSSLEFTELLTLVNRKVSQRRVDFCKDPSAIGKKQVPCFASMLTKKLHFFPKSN
Put plainly: delayed-time fluorescence caspase inhibition test, caspase-6.
Method: as §1, §2, §3, §4, §5, §6

Where [7] appears, read: read-out: IC20 of standard inhibitor.

Like-named read-outs stand apart in the source and are kept apart here. Where a SMILES comes first, the peptide text is derived from it. The star is where a group is joined. Cbz = O=C(OCc1ccccc1)*; CH2F = FC* Where only a bound is given, the exact number is not on record here.

With `CS(=O)(=O)CCc1ccc(CC2(CNS(=O)(=O)c3ccc(Cl)cc3Cl)CCC2)cc1` [Example 27, 2,4-dichloro-N-[(1-{4-[2-(methylsulfonyl)ethyl]benzyl}cyclobutyl)methyl]benzenesulfonamide], the IC50 is > 200 µM in test [1]; > 200 µM in test [2]; 0.235 µM in test [3]; > 200 µM in test [4]; > 200 µM in test [5]; > 200 µM in test [6].

Regarding `CSCCc1ccc(CC2(CNS(=O)(=O)c3ccc(Cl)cc3Cl)CCC2)cc1` [Example 17, 2,4-dichloro-N-[(1-{4-[2-(methylthio)ethyl]benzyl}cyclobutyl)methyl]benzenesulfonamide], the concentration for half-maximal inhibition (IC50) in test [1] was > 200 µM; in test [2] it was > 200 µM; in test [3], 0.214 µM; in test [4], > 200 µM; in test [5] it was > 200 µM; in test [6], > 200 µM.

For the molecule `O=[N+]([O-])c1ccc(S(=O)(=O)NCC2(Cc3ccc(CCO)cc3)CCCC2)cc1` [Example 52], the IC50 in test [1] was > 200 µM; in test [2], > 200 µM; in test [3], 3.69 µM; in test [4], > 200 µM; in test [5], > 200 µM; in test [6], > 200 µM.

`O=S(=O)(NCC1(Cc2ccc(CCO)cc2)CCCC1)c1ccc(Cl)c(C(F)(F)F)c1` [Example 65]: the IC50 was > 200 µM in test [1]; > 200 µM in test [2]; 0.25 µM in test [3]; > 25 µM in test [4]; > 200 µM in test [5]; > 200 µM in test [6].

As to `O=S(=O)(NCC1(Cc2ccc(CCO)cc2)CCCC1)c1ccc(C(F)(F)F)cc1` [Example 49], the IC50 was > 200 µM in test [1]; > 200 µM in test [2]; 3.14 µM in test [3]; > 200 µM in test [4]; > 200 µM in test [5]; > 200 µM in test [6].

Turning to `COC(=O)CC[C@H](NC(=O)[C@H](CC(C)C)NC(=O)OCc1ccccc1)C(=O)N[C@@H](Cc1c[nH]cn1)C(=O)N[C@@H](CC(=O)OC)C(=O)CF` [z-LEHD - fmk, z-LE(OMe)HD(OMe)-fmk, reference compound] (Cbz-LE(OMe)HD(OMe)-CH2F), the IC20 in test [4] (setting [7]) came out at 0.2 µM.

For the molecule `CSc1ccc(S(=O)(=O)NCC2(Cc3ccc(CCO)cc3)CCCC2)cc1` [Example 43], the IC50 was > 200 µM in test [1]; > 200 µM in test [2]; 5.12 µM in test [3]; > 200 µM in test [4]; > 200 µM in test [5]; > 200 µM in test [6].

As for `O=S(=O)(NCC1(Cc2ccc(CCO)cc2)CCCC1)c1ccc(Cl)cc1Cl` [Example 46], the IC50 in test [1] was > 200 µM; in test [2] it was > 200 µM; in test [3], 0.179 µM; in test [4] it was > 200 µM; in test [5] it was > 200 µM; in test [6], > 200 µM.

For `CC[C@H](C)[C@H](NC(=O)OCc1ccccc1)C(=O)N[C@@H](CCC(=O)OC)C(=O)N[C@H](C(=O)N[C@@H](CC(=O)OC)C(=O)CF)[C@@H](C)O` [z- IETD - fmk, z-IE(OMe)TD(OMe)-fmk, reference compound] (Cbz-IE(OMe)TD(OMe)-CH2F), the concentration for an effect of 20% (IC20) in test [3] (setting [7]) was determined as 0.08 µM; in test [5] (setting [7]) it was 1.5 µM.

Consider `COc1ccc(S(=O)(=O)NCC2(Cc3ccc(CCOCC4CC4)cc3)CCC2)cc1` [Example 5, N-[(1-{4-[2-(cyclopropylmethoxy)ethyl]benzyl}cyclobutyl)methyl]-4-methoxy-benzenesulfonamide], for which the IC50 in test [1] was > 200 µM; in test [2], > 200 µM; in test [3], 3.59 µM; in test [4], > 200 µM; in test [5], > 200 µM; in test [6], > 200 µM.

With `O=S(=O)(NCC1(Cc2ccc(CCO)cc2)CCCC1)c1ccc2ccccc2c1` [Example 51], the IC50 is > 200 µM in test [1]; > 200 µM in test [2]; 0.281 µM in test [3]; > 200 µM in test [4]; > 200 µM in test [5]; > 200 µM in test [6].

As for `CC[C@H](C)[C@H](NC(=O)[C@H](CCC(=O)OC)NC(=O)[C@@H](NC(=O)OCc1ccccc1)C(C)C)C(=O)N[C@@H](CC(=O)OC)C(=O)CF` [z- VEID - fmk, z-VE(OMe)ID(OMe)-fmk, reference compound] (Cbz-VE(OMe)ID(OMe)-CH2F), in test [6] (setting [7]), the concentration for an effect of 20% (IC20) worked out at 3 µM.

Consider `O=S(=O)(NCC1(Cc2ccc(CCO)cc2)CCCC1)c1cc(Cl)cc(Cl)c1` [Example 62], for which the half-inhibitory concentration (IC50) in test [1] was > 200 µM; in test [2], > 200 µM; in test [3], 6.22 µM; in test [4] it was > 200 µM; in test [5], > 200 µM; in test [6], > 200 µM.

Take `O=S(=O)(NCC1(Cc2ccc(CCSC3CCCC3)cc2)CCC1)c1ccc(Cl)cc1Cl` [Example 12, 2,4-dichloro-N-[(1-{4-[2-(cyclopentylthio)ethyl]benzyl}cyclobutyl)methyl]benzenesulfonamide]: the IC50 in test [1] was > 200 µM; in test [2], > 200 µM; in test [3] it was 0.216 µM; in test [4], > 200 µM; in test [5], > 200 µM; in test [6] it was > 200 µM.

Turning to `O=S(=O)(NCC1(Cc2ccc(CCS(=O)(=O)C3CCCC3)cc2)CCC1)c1ccc(Cl)cc1Cl` [Example 22, 2,4-dichloro-N-[(1-{4-[2-(cyclopentylsulfonyl)ethyl]benzyl}cyclobutyl)methyl]benzenesulfonamide], the concentration for half-maximal inhibition (IC50) in test [1] was > 200 µM; in test [2], > 200 µM; in test [3], 0.705 µM; in test [4], > 200 µM; in test [5], > 200 µM; in test [6], > 200 µM.

Consider `O=S(=O)(NCC1(Cc2ccc(CCO)cc2)CCC1)c1c(F)c(F)c(F)c(F)c1F` [Example 66], for which the concentration for half-maximal inhibition (IC50) was > 200 µM in test [1] (read-out: Inhibition IC50 Caspase-2, tested 100 nM to 200 μM, 1% DMSO, 3 h 30 min at room temperature); > 200 µM in test [2] (read-out: Inhibition IC50 Caspase-3, tested 100 nM to 200 μM, 1% DMSO, 3 h 30 min at room temperature); 0.393 µM in test [3] (read-out: Inhibition IC50 Caspase-10, tested 100 nM to 200 μM, 1% DMSO, 3 h 30 min at room temperature); > 200 µM in test [4] (read-out: Inhibition IC50 Caspase-9, tested 100 nM to 200 μM, 1% DMSO, 3 h 30 min at room temperature); > 200 µM in test [5] (read-out: Inhibition IC50 Caspase-8, tested 100 nM to 200 μM, 1% DMSO, 3 h 30 min at room temperature); > 200 µM in test [6] (read-out: Inhibition IC50 Caspase-6, tested 100 nM to 200 μM, 1% DMSO, 3 h 30 min at room temperature).

Consider `COC(=O)C[C@H](NC(=O)[C@H](C)NC(=O)[C@@H](NC(=O)[C@H](CC(=O)OC)NC(=O)OCc1ccccc1)C(C)C)C(=O)CF` [z- DVAD - fmk, reference compound] (Cbz-D(OMe)VAD(OMe)-CH2F), for which, in test [1] (setting [7]), the concentration for an effect of 20% (IC20) was 3 µM.

By IC50 is commonly meant the midpoint of a concentration-inhibition curve. Broadly, the IC20 is the concentration needed for an effect of 20%.
